The record followed here is patent US10758534B2 (Vertex Pharmaceuticals Incorporated, priority 2014, dated 2020).

The target in this test is T1, F508del (Homo sapiens, UniProt P13569, DEL508-508).
T1 construct: expressed in transfected cells
The test can be described thus: Protocol 1: membrane potential optical assay (FLIPR III, voltage sensing dye), identification of potentiator compounds. Conditions: Table 3, compounds of Table 1. The test is classed as cell-based. A digest of the protocol: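 Read-out: change in voltage-sensing dye fluorescence (FLIPR III) as a measure of F508del conductance. Temperature-corrected (27° C, 24 hrs) NIH 3T3 cells expressing F508del are pretreated with potentiators, dye-loaded, then stimulated with forskolin under a chloride ion gradient using chloride-free gluconate bath.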

T1 sequence (P13569 with tags, fused parts or gaps DEL508-508): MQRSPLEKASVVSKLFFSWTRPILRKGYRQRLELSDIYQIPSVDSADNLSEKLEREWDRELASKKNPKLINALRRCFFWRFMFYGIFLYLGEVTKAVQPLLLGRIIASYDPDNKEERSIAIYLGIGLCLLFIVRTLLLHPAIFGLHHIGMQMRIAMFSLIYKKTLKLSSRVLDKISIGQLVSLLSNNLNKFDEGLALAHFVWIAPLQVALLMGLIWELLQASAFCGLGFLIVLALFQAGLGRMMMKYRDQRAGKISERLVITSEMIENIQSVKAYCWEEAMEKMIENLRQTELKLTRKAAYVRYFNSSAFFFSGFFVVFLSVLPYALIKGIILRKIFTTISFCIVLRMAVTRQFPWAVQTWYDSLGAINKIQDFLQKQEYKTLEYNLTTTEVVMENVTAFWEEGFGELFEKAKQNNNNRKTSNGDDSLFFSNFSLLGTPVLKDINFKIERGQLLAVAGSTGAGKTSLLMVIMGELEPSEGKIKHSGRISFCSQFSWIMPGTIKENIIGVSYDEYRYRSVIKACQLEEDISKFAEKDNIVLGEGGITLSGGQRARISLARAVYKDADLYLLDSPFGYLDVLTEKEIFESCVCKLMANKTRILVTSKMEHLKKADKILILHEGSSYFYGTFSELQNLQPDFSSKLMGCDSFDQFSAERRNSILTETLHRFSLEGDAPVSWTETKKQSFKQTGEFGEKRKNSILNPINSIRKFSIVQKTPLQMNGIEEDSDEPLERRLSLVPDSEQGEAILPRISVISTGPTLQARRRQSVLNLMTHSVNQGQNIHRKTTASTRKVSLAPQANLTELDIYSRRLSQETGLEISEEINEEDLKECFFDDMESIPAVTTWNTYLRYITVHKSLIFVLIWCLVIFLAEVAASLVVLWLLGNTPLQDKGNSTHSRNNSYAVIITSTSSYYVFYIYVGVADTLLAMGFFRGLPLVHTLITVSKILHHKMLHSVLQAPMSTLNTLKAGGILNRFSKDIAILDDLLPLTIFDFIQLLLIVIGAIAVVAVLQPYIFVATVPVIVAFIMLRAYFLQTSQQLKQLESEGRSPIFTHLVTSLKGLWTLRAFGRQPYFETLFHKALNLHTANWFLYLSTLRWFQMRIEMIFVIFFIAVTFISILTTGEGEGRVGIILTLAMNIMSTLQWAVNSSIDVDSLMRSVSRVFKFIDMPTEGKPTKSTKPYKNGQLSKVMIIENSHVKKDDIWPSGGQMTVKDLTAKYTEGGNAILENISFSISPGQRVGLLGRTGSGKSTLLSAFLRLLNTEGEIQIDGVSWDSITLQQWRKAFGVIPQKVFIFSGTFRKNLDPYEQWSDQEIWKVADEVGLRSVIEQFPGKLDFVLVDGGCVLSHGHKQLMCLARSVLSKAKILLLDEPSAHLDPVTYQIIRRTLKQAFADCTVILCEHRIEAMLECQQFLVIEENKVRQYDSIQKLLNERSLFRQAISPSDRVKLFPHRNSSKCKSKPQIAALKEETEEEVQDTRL

`CC(C)COc1cc(F)cc(-c2ccc(C(=O)NS(=O)(=O)N3CCCC(N)C3)c(N3CC(C)CC3(C)C)n2)c1` (stereo not drawn) [Compound 1447, N-[(3-amino-1-piperidyl)sulfonyl]-6-(3-fluoro-5-isobutoxy-phenyl)-2-(2,2,4-trimethylpyrrolidin-1-yl)pyridine-3-carboxamide]: the EC30 result is on record as “+++ (“+++” means <3 uM)”.
Under `COc1cccc(S(=O)(=O)NC(=O)C2Cc3ccccc3CCN2Cc2c(C)cc(C)cc2C)n1` (stereo not drawn) [Compound 948, N-[(6-methoxy-2-pyridyl)sulfonyl]-3-[(2,4,6-trimethylphenyl)methyl]-1,2,4,5-tetrahydro-3-benzazepine-4-carboxamide] stands “+++ (“+++” means <3 uM)”.
For `Cc1ccc(-c2ccc(C(=O)NS(=O)(=O)c3cccc(N)n3)c(N3CC(C)CC3(C)C)n2)nc1OCC(C)(C)C` (stereo not drawn) [Compound 1610, N-[(6-amino-2-pyridyl)sulfonyl]-6-[6-(2,2-dimethylpropoxy)-5-methyl-2-pyridyl]-2-(2,2,4-trimethylpyrrolidin-1-yl)pyridine-3-carboxamide], the EC30 result was “+++ (“+++” means <3 uM)”.
For the compound `Cc1cc(C)c(Oc2nc(C3=CCCC3)ccc2C(=O)NS(=O)(=O)c2cccc(N)n2)c(C)c1` [Compound 1330, N-[(6-amino-2-pyridyl)sulfonyl]-6-(cyclopenten-1-yl)-2-(2,4,6-trimethylphenoxy)pyridine-3-carboxamide], the EC30 result is on record as “+++ (“+++” means <3 uM)”.
In the case of `CC(C)COc1cc(F)cc(-c2ccc(C(=O)NS(=O)(=O)c3cccc(N)n3)c(OCC3CCCC3)n2)c1` [Compound 1450, N-[(6-amino-2-pyridyl)sulfonyl]-2-(cyclopentylmethoxy)-6-(3-fluoro-5-isobutoxy-phenyl)pyridine-3-carboxamide], the EC30 entry is listed as “+++ (“+++” means <3 uM)”.
In the case of `Cc1cc(C)c(Oc2nc(-c3ccc(C)cc3F)ccc2C(=O)NS(=O)(=O)c2cccc(N)n2)c(C)c1` [Compound 875, N-[(6-amino-2-pyridyl)sulfonyl]-6-(2-fluoro-4-methyl-phenyl)-2-(2,4,6-trimethylphenoxy)pyridine-3-carboxamide], the EC30 entry is listed as “+++ (“+++” means <3 uM)”.
For `CC(C)COc1cc(-c2ccc(C(=O)NS(=O)(=O)c3ccc[nH]c3=O)c(N3CCC(C)CC3)n2)ccc1Cl` [Compound 941, 6-(4-chloro-3-isobutoxy-phenyl)-2-(4-methyl-1-piperidyl)-N-[(2-oxo-1H-pyridin-3-yl)sulfonyl]pyridine-3-carboxamide], the EC30 result was “+++ (“+++” means <3 uM)”.
Under `Cc1ccc(-c2ccc(C(=O)NS(=O)(=O)c3cccc(N)n3)c(N3C[C@@H](C)CC3(C)C)n2)cc1F` [Compound 1922, N-[(6-amino-2-pyridyl)sulfonyl]-6-(3-fluoro-4-methyl-phenyl)-2-[(4S)-2,2,4-trimethylpyrrolidin-1-yl]pyridine-3-carboxamide] stands “+++ (“+++” means <3 uM)”; under `COc1ccc(-c2ccc(C(=O)NS(=O)(=O)c3cccnc3N)c(N3C[C@@H](C)CC3(C)C)n2)c(OC)c1` [Compound 1705, N-[(2-amino-3-pyridyl)sulfonyl]-6-(2,4-dimethoxyphenyl)-2-[(4S)-2,2,4-trimethylpyrrolidin-1-yl]pyridine-3-carboxamide], “+++ (“+++” means <3 uM)”.
The result for `Cc1cc(C)c(Oc2nc(C3=CC(C)(C)OCC3)ccc2C(=O)NS(=O)(=O)c2cccc(N)n2)c(C)c1` [Compound 1460, N-[(6-amino-2-pyridyl)sulfonyl]-6-(6,6-dimethyl-2,3-dihydropyran-4-yl)-2-(2,4,6-trimethylphenoxy)pyridine-3-carboxamide] reads “+++ (“+++” means <3 uM)”.
Regarding `CC(C)Oc1ccc(-c2ccc(C(=O)NS(=O)(=O)c3cccc(N)n3)c(N3CCCCCC3)n2)cn1` [Compound 940, N-[(6-amino-2-pyridyl)sulfonyl]-2-(azepan-1-yl)-6-(6-isopropoxy-3-pyridyl)pyridine-3-carboxamide], the EC30 entry is “+++ (“+++” means <3 uM)”.
With `CC(C)Oc1ccc(-c2ccc(C(=O)NS(=O)(=O)c3cccc(N)n3)c(N3CCC(c4ccccc4)C3)n2)cn1` (stereo not drawn) [Compound 1112, N-[(6-amino-2-pyridyl)sulfonyl]-6-(6-isopropoxy-3-pyridyl)-2-(3-phenylpyrrolidin-1-yl)pyridine-3-carboxamide], the EC30 result was “++ (“++” means between 3 uM and 10 uM)”.
The result for `Cc1cc(OCC(C)C)nn1-c1ccc(C(=O)NS(=O)(=O)c2cccc(N)n2)c(N2C[C@@H](C)CC2(C)C)n1` [Compound 1407, N-[(6-amino-2-pyridyl)sulfonyl]-6-(3-isobutoxy-5-methyl-pyrazol-1-yl)-2-[(4S)-2,2,4-trimethylpyrrolidin-1-yl]pyridine-3-carboxamide] reads “+++ (“+++” means <3 uM)”.
In the case of `CC(C)COc1cc(F)cc(-c2ccc(C(=O)NS(=O)(=O)N3CCCC(N(C)C)C3)c(N3CC(C)CC3(C)C)n2)c1` (stereo not drawn) [Compound 1414, N—[[3-(dimethylamino)-1-piperidyl]sulfonyl]-6-(3-fluoro-5-isobutoxy-phenyl)-2-(2,2,4-trimethylpyrrolidin-1-yl)pyridine-3-carboxamide], the EC30 result is recorded as “+++ (“+++” means <3 uM)”.
Turning to `CC(C)COc1cc(F)cc(-c2ccc(C(=O)NS(=O)(=O)c3cccc(N)n3)c(O[C@@H]3C[C@H]4CC[C@@H]3C4)n2)c1` [Compound 1216, N-[(6-amino-2-pyridyl)sulfonyl]-6-(3-fluoro-5-isobutoxy-phenyl)-2-[(1R,2R,4S)-norbornan-2-yl]oxy-pyridine-3-carboxamide], the EC30 entry is reported as “+++ (“+++” means <3 uM)”.
Take `Cc1cccc(-c2ccc(C(=O)NS(=O)(=O)c3cccnc3N)c(N3C[C@@H](C)CC3(C)C)n2)c1C` [Compound 1713, N-[(2-amino-3-pyridyl)sulfonyl]-6-(2,3-dimethylphenyl)-2-[(4S)-2,2,4-trimethylpyrrolidin-1-yl]pyridine-3-carboxamide]: the EC30 entry is on record as “+++ (“+++” means <3 uM)”.
With `C[C@@H]1CN(c2nc(-c3cccc(OC(F)(F)F)c3)ccc2C(=O)NS(=O)(=O)c2ccc[nH]c2=O)C(C)(C)C1` [Compound 1934, N-[(2-oxo-1H-pyridin-3-yl)sulfonyl]-6-[3-(trifluoromethoxy)phenyl]-2-[(4S)-2,2,4-trimethylpyrrolidin-1-yl]pyridine-3-carboxamide], the EC30 result is “+++ (“+++” means <3 uM)”.
The result for `CC(C)Oc1ccc(-c2ccc(C(=O)NS(=O)(=O)c3cccc(N)n3)c(N3CCC(C)(C)C3C)n2)cn1` (stereo not drawn) [Compound 1327, N-[(6-amino-2-pyridyl)sulfonyl]-6-(6-isopropoxy-3-pyridyl)-2-(2,3,3-trimethylpyrrolidin-1-yl)pyridine-3-carboxamide] reads “+++ (“+++” means <3 uM)”.
On to `Cc1cc(-c2ccc(C(=O)NS(=O)(=O)c3cccnc3N)c(N3C[C@@H](C)CC3(C)C)n2)cnc1OC(C)C` [Compound 1702, N-[(2-amino-3-pyridyl)sulfonyl]-6-(6-isopropoxy-5-methyl-3-pyridyl)-2-[(4S)-2,2,4-trimethylpyrrolidin-1-yl]pyridine-3-carboxamide], for which the EC30 result is listed as “+++ (“+++” means <3 uM)”.
The result for `CCOc1cccc2c1CN(Cc1ccc(C(C)C)cc1)C2(C)C(=O)NS(=O)(=O)c1cccc(N)n1` (stereo not drawn) [Compound 1576, N-[(6-amino-2-pyridyl)sulfonyl]-4-ethoxy-2-[(4-isopropylphenyl)methyl]-1-methyl-isoindoline-1-carboxamide] reads “+++ (“+++” means <3 uM)”.
The result for `COc1ccc(C#N)cc1-c1ccc(C(=O)NS(=O)(=O)c2cccc(N)n2)c(Oc2c(C)cc(C)cc2C)n1` [Compound 1111, N-[(6-amino-2-pyridyl)sulfonyl]-6-(5-cyano-2-methoxy-phenyl)-2-(2,4,6-trimethylphenoxy)pyridine-3-carboxamide] reads “+++ (“+++” means <3 uM)”.
As for `CC(C)Oc1ccc(-c2ccc(C(=O)NS(=O)(=O)c3cccc(N)n3)c(N3CCC4(CC3)OCc3ccccc34)n2)cn1` [Compound 818, N-[(6-amino-2-pyridyl)sulfonyl]-6-(6-isopropoxy-3-pyridyl)-2-spiro[1H-isobenzofuran-3,4′-piperidine]-1′-yl-pyridine-3-carboxamide], the EC30 entry was “+++ (“+++” means <3 uM)”.
With `Cc1cc(C)c(Oc2nc(C3CCC(C)(C)CC3)ccc2C(=O)NS(=O)(=O)c2ccc[nH]c2=O)c(C)c1` [Compound 1091, 6-(4,4-dimethylcyclohexyl)-N-[(2-oxo-1H-pyridin-3-yl)sulfonyl]-2-(2,4,6-trimethylphenoxy)pyridine-3-carboxamide], the EC30 entry is “+++ (“+++” means <3 uM)”.
As for `CCOc1ccccc1-c1ccc(C(=O)NS(=O)(=O)c2ccc[nH]c2=O)c(N2C[C@@H](C)CC2(C)C)n1` [Compound 1848, 6-(2-ethoxyphenyl)-N-[(2-oxo-1H-pyridin-3-yl)sulfonyl]-2-[(4S)-2,2,4-trimethylpyrrolidin-1-yl]pyridine-3-carboxamide], the EC30 entry is “+++ (“+++” means <3 uM)”.
The result for `[2H]C1([2H])[C@@H](C)CC(C)(C)N1c1nc(-c2cc(F)cc(OCC(C)C)c2)ccc1C(=O)NS(=O)(=O)c1cccc(N)n1` [Compound 1400, N-[(6-amino-2-pyridyl)sulfonyl]-2-[(3S)-2,2-dideuterio-3,5,5-trimethyl-pyrrolidin-1-yl]-6-(3-fluoro-5-isobutoxy-phenyl)pyridine-3-carboxamide] reads “+++ (“+++” means <3 uM)”; that for `COc1cc(Cl)ccc1-c1ccc(C(=O)NS(=O)(=O)c2cccc(N)n2)c(Oc2c(C)cc(C)cc2C)n1` [Compound 897, N-[(6-amino-2-pyridyl)sulfonyl]-6-(4-chloro-2-methoxy-phenyl)-2-(2,4,6-trimethylphenoxy)pyridine-3-carboxamide], “+++ (“+++” means <3 uM)”.
Turning to `CC(C)Oc1ccc(-c2ccc(C(=O)NS(=O)(=O)c3cccc(N)n3)c(N3C[C@@H](C)CC3(C)C)n2)cn1` [Compound 811, N-[(6-amino-2-pyridyl)sulfonyl]-6-(6-isopropoxy-3-pyridyl)-2-[(4S)-2,2,4-trimethylpyrrolidin-1-yl]pyridine-3-carboxamide], the EC30 result was “+++ (“+++” means <3 uM)”.
